PubChem BioAssay (NCI)
“And” between values parts separate entries of the source, which are not always exact repeats. Equal values may be shown once.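 Growth conditions: 96-well plates. Treatment: test compound, 48 hours, 5 concentrations. Analysis: linear interpolation between bracketing concentrations; unreached endpoints set to highest concentration. Abbreviation: GI50, concentration required for 50% inhibition of growth. The concentration for full growth arrest is given as TGI.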

Tests used:
Test in all cases: DTP human tumour cell line panel, 48 h
A549 NSCLC = test system: A549 NSCLC
CCRF-CEM leukemia = test system: CCRF-CEM leukemia
HL-60(TB) leukemia = test system: HL-60(TB) leukemia
HOP-92 NSCLC = test system: HOP-92 NSCLC
MDA-MB-435 = test system: MDA-MB-435
NCI-H23 lung = test system: NCI-H23 lung
NCI/ADR-RES ovarian = test system: NCI/ADR-RES ovarian
SF-295 CNS = test system: SF-295 CNS
U251 CNS = test system: U251 CNS
UO-31 renal = test system: UO-31 renal

SMILES	TGI (A549 NSCLC)	TGI (CCRF-CEM leukemia)	TGI (HL-60(TB) leukemia)	TGI (HOP-92 NSCLC)	TGI (MDA-MB-435) [µM]	TGI (NCI-H23 lung) [µM]	TGI (NCI/ADR-RES ovarian)	TGI (SF-295 CNS)	TGI (U251 CNS) [µM]	TGI (UO-31 renal)	GI50 (A549 NSCLC) [µM]	GI50 (CCRF-CEM leukemia) [µM]	GI50 (HL-60(TB) leukemia)	GI50 (HOP-92 NSCLC) [µM]	GI50 (NCI-H23 lung) [µM]	GI50 (NCI/ADR-RES ovarian) [µM]	GI50 (SF-295 CNS) [µM]	GI50 (U251 CNS) [µM]	GI50 (UO-31 renal) [µM]
C(=N\NC1=NCCCCN1)/c1ccc2ccccc2c1	> 100 µM	> 100 µM	62.8 µM	62.7 µM	34.7	> 100	> 100 µM	46.3 µM	58.6	> 100 µM									
COC(=O)c1ccc(OCCn2nnc(C(=O)NN)c2C(=O)NN)cc1	> 100 µM	> 100 µM	> 100 µM	> 100 µM	> 100	> 100	> 100 µM	> 100 µM	> 100	> 100 µM									
COc1ccc2[nH]c3ccc4cc[n+](CCN5CCC(C6CCN(CC[n+]7ccc8ccc9[nH]c%10ccc(OC)cc%10c9c8c7)CC6)CC5)cc4c3c2c1	50 µM and > 62.2 µM	25.4 µM and 16.8 µM	50 µM and 8.43 µM	28.1 µM and 5.47 µM	> 50	> 100	50 µM and > 46.4 µM	44.8 µM and 42.2 µM	> 52.3	50 µM and > 100 µM	0.747	0.566	4.47 µM and 0.899 µM	27.7	4.46	35.2	34.5	> 50	42.5
N=C1OC(CN2CCN(c3ccccc3)CC2)CN1C(=O)Nc1ccccc1 (configuration not stated)	> 100 µM	> 100 µM	> 100 µM	> 100 µM	> 100	> 100	> 100 µM	> 100 µM	> 100	> 100 µM									
Cc1cccc2c(=O)c3cccc([C@H](C)C(=O)O)c3oc12	> 100 µM	> 100 µM	> 100 µM	> 100 µM	> 100	> 100	> 100 µM	> 100 µM	> 100	> 100 µM									
COc1cc(C[C@@]2(C)[C@@H]3CCC[C@H](CO)[C@@]3(C)CC[C@@H]2C)c(Cl)c(OC)c1	29.6 µM	> 100 µM	47.3 µM	30.5 µM	27.1	37.2	31.3 µM	29.9 µM	29	31.5 µM									
COC(=O)[C@@]12CSC[C@]1(C(=O)OC)N[C@@H](c1ccccc1O)C2	> 100 µM	> 100 µM	> 100 µM	> 100 µM	> 100	> 100	> 100 µM	> 100 µM	> 100	> 100 µM									
CC(C)(C)OC(=O)NC(CSCc1ccc(C(=O)c2ccccc2)cc1)C(=O)N1CCN(CCCCN2c3ccccc3Sc3cc(N=[N+]=[N-])ccc32)CC1 (configuration not stated)	> 100 µM	> 100 µM	> 100 µM	> 100 µM	> 100	> 100	> 100 µM	> 100 µM	> 100	> 100 µM									
Cc1nc2c(Cl)cc(Cl)cc2c2c1CCO2	> 100 µM	> 100 µM	> 100 µM	> 100 µM	> 100	> 100	> 100 µM	> 100 µM	> 100	> 100 µM									
CCCCn1c(=O)[nH]c2c(N)ncnc21	> 100 µM	> 100 µM	> 100 µM	> 100 µM	> 100	> 100	> 100 µM	> 100 µM	> 100	> 100 µM									
C/C(Cc1ccc2c(c1)OCO2)=N\N=c1\sc2ccccc2n1C	> 100 µM	> 100 µM	> 100 µM	> 100 µM	> 100	> 100	> 100 µM	> 100 µM	> 100	> 100 µM									
COC(=O)c1csc(-c2csc(CCNC(=O)OC(C)(C)C)n2)n1	> 100 µM	> 100 µM	> 100 µM	> 100 µM	> 100	> 100	> 100 µM	> 100 µM	> 100	> 100 µM									
Cc1cn(S(=O)(=O)c2ccccc2)c2c(OCc3ccccc3)cc([N+](=O)[O-])cc12	> 100 µM	> 100 µM	> 100 µM	> 100 µM	> 100	> 100	> 100 µM	> 100 µM	> 100	> 100 µM									
Cc1cc(=O)[nH]c2cc(NC(=O)C(C)NC(=O)C(C)NC(=O)C(C)NC(=O)OC(C)(C)C)ccc12 (configuration not stated)	> 15 µM	> 15 µM	> 15 µM	> 15 µM	> 15	> 15	> 15 µM	> 15 µM	> 15	> 15 µM									
N=c1oc2cc(O)ccc2cc1C(=O)Nc1ccccn1	> 100 µM	94.2 µM	> 100 µM	> 100 µM	> 100	> 100	> 100 µM	> 100 µM	> 100										
CC1=NNC(=O)C1C1(C(=O)O)CC(c2c[nH]c3ccccc23)=NC(=S)N1 (configuration not stated)	> 100 µM	64.1 µM	90.1 µM	> 100 µM	> 100	56.8	> 100 µM	91.1 µM	69.8	> 100 µM									
COc1ccc(N2C(=O)C3ON(Cc4ccc(CC(N)=O)cc4)C(c4c5ccccc5c(C)c5ccccc45)C3C2=O)cc1 (configuration not stated)	> 100 µM	> 100 µM	51.2 µM	> 100 µM	> 100	> 100	> 100 µM	> 100 µM	> 100	37.3 µM									
Cc1cc2ncn(CC(=O)O)c2cc1C	> 100 µM	> 100 µM	> 100 µM	> 100 µM	> 100	> 100	> 100 µM	> 100 µM	> 100	> 100 µM									
CCN(CC)CCC(=O)/C=C/c1ccc(Cl)c(Cl)c1	> 10 µM	7.18 µM	1.76 µM	> 10 µM	> 10	> 10	4.66 µM	> 10 µM	> 10										
